Experimental data as given in patent publication US20020035061A1, “COMPOSITIONS AND METHODS FOR TREATING INFECTIONS USING CATIONIC PEPTIDES ALONE OR IN COMBINATION WITH ANTIBIOTICS” (priority 1996, published 2002).
In brackets after ≈: the same amount, converted by molar mass. Several values for one entry are separate records, joined by “and”; a condition that tells them apart may be missing. Equal values may be shown once. Read-outs that look alike come from different tables or passages of the source.

Columns and labels:
Assay in all cases: microbe, parasite or virus in culture
Assay type in all cases: cell-based
[1] = test system: microorganisms with acquired resistance; settings: Pseudomonas aeruginosa, read-out: Amikacin MIC Alone, P. aeruginosa PA022
[2] = test system: inherently resistant microorganisms
[3] = test system: bacterial isolates
[4] = test system: vancomycin / teicoplanin resistant enterococci
[5] = Enterococcus faecalis, read-out: Amikacin MIC Alone, E. faecalis EFS008
[6] = Enterococcus faecium, read-out: Amikacin MIC Alone, E. faecium EFM004

SMILES: NCC[C@H](O)C(=O)N[C@@H]1C[C@H](N)[C@@H](O[C@H]2O[C@H](CN)[C@@H](O)[C@H](O)[C@H]2O)[C@H](O)[C@H]1O[C@H]1O[C@H](CO)[C@@H](O)[C@H](N)[C@H]1O [Amikacin]
- MIC [1]: 64 µg/mL (≈ 109 µM)
- MIC ([2]; Acinetobacter baumannii, read-out: Amikacin MIC + Peptide, A. baumannii, peptide Deber A2KA2): 16 µg/mL
- MIC ([2]; Acinetobacter baumannii, read-out: Amikacin MIC + Peptide, A. baumannii, peptide MBI 11B16CN): 4 µg/mL
- MIC ([2]; Acinetobacter baumannii, read-out: Amikacin MIC + Peptide, A. baumannii, peptide MBI 27): 16 µg/mL
- MIC ([2]; Acinetobacter baumannii, read-out: Amikacin MIC + Peptide, A. baumannii, peptide MBI 29F1): 16 µg/mL
- MIC ([2]; Acinetobacter baumannii, read-out: Amikacin MIC Alone, A. baumannii): 32 µg/mL (≈ 54.6 µM)
- Amikacin MIC + Peptide ([2]; B. cepacia, peptide MBI 29A3): 32 µg/mL
- MIC ([2]; Burkholderia cepacia, read-out: Amikacin MIC + Peptide, B. cepacia, peptide MBI 27): 16 µg/mL
- MIC ([2]; Burkholderia cepacia, read-out: Amikacin MIC + Peptide, B. cepacia, peptide MBI 29A3): 16 µg/mL
- Amikacin MIC + Peptide ([2]; S. aureus MRSA, peptide MBI 11B16CN): 4 µg/mL
- Amikacin MIC + Peptide ([2]; S. maltophilia, peptide MBI 11B16CN): 4 µg/mL
- Amikacin MIC + Peptide ([2]; S. maltophilia, peptide MBI 21A2): 16 µg/mL
- Amikacin MIC + Peptide ([2]; S. maltophilia, peptide MBI 26): 16 µg/mL
- Amikacin MIC + Peptide ([2]; S. maltophilia, peptide MBI 29A3): 16 µg/mL
- MIC ([2]; Staphylococcus aureus, MRSA, read-out: Amikacin MIC + Peptide, S. aureus MRSA, peptide Deber A2KA2): 0.125 µg/mL
- MIC ([2]; Staphylococcus aureus, MRSA, read-out: Amikacin MIC + Peptide, S. aureus MRSA, peptide MBI 11B16CN): 8 µg/mL
- MIC ([2]; Staphylococcus aureus, MRSA, read-out: Amikacin MIC + Peptide, S. aureus MRSA, peptide MBI 21A2): 2 µg/mL
- MIC ([2]; Staphylococcus aureus, MRSA, read-out: Amikacin MIC + Peptide, S. aureus MRSA, peptide MBI 27): 16 µg/mL
- MIC ([2]; Staphylococcus aureus, MRSA, read-out: Amikacin MIC + Peptide, S. aureus MRSA, peptide MBI 29F1): 16 µg/mL
- MIC ([2]; Staphylococcus aureus, MRSA, read-out: Amikacin MIC Alone, S. aureus MRSA): 32 µg/mL (≈ 54.6 µM)
- MIC ([2]; Stenotrophomonas maltophilia, read-out: Amikacin MIC + Peptide, S. maltophilia, peptide MBI 11B16CN): 8 µg/mL
- MIC ([2]; Stenotrophomonas maltophilia, read-out: Amikacin MIC + Peptide, S. maltophilia, peptide MBI 21A2): 8 µg/mL
- MIC ([2]; Stenotrophomonas maltophilia, read-out: Amikacin MIC + Peptide, S. maltophilia, peptide MBI 26): 8 µg/mL
- MIC ([2]; Stenotrophomonas maltophilia, read-out: Amikacin MIC + Peptide, S. maltophilia, peptide MBI 29A3): 8 µg/mL
- MIC ([2]; Stenotrophomonas maltophilia, read-out: Amikacin MIC + Peptide, S. maltophilia, peptide MBI 29F1): 8 µg/mL
- MIC ([2]; Stenotrophomonas maltophilia, read-out: Amikacin MIC Alone, S. maltophilia): 128 µg/mL (≈ 219 µM)
- Amikacin MIC Alone ([3]; A. baumannii ABI001): 32 µg/mL
- MIC ([3]; Acinetobacter baumannii, read-out: Amikacin MIC Alone, A. baumannii ABI001): 64 µg/mL (≈ 109 µM)
- MIC ([3]; Acinetobacter baumannii, read-out: Amikacin MIC Alone, A. baumannii ABI003): 16 µg/mL (≈ 27.3 µM)
- Amikacin MIC Alone ([3]; B. cepacia BC005): 128 µg/mL
- MIC ([3]; Burkholderia cepacia, read-out: Amikacin MIC Alone, B. cepacia BC003): 32 µg/mL (≈ 54.6 µM)
- MIC ([3]; Burkholderia cepacia, read-out: Amikacin MIC Alone, B. cepacia BC005): 64 µg/mL (≈ 109 µM)
- Amikacin MIC Alone ([3]; E. faecalis EFS008): 64 µg/mL
- Amikacin MIC Alone ([3]; E. faecium EFM004): >128 µg/mL
- MIC [3, 5]: 32 µg/mL (≈ 54.6 µM)
- MIC [3, 6]: 128 µg/mL (≈ 219 µM)
- MIC ([3]; Escherichia coli, read-out: Amikacin MIC Alone, E. coli ECO022): 16 µg/mL (≈ 27.3 µM)
- Amikacin MIC Alone ([3]; P. aeruginosa PA022): 128 µg/mL
- MIC ([3]; Pseudomonas aeruginosa, read-out: Amikacin MIC Alone, P. aeruginosa PA022): 64 µg/mL (≈ 109 µM)
- MIC ([3]; Pseudomonas aeruginosa, read-out: Amikacin MIC Alone, P. aeruginosa PA037): 16 µg/mL (≈ 27.3 µM)
- Amikacin MIC Alone ([3]; S. epidermidis SE003): 64 µg/mL
- Amikacin MIC Alone ([3]; S. maltophilia SMA018): >128 µg/mL
- Amikacin MIC Alone ([3]; S. maltophilia SMA037): 64 µg/mL
- MIC ([3]; Staphylococcus aureus, MRSA, read-out: Amikacin MIC Alone, S. aureus SA014 MRSA): 32 µg/mL (≈ 54.6 µM)
- MIC ([3]; Staphylococcus aureus, MRSA, read-out: Amikacin MIC Alone, S. aureus SA025 MRSA): 32 µg/mL (≈ 54.6 µM)
- MIC ([3]; Staphylococcus epidermidis, read-out: Amikacin MIC Alone, S. epidermidis SE002): 64 µg/mL (≈ 109 µM)
- MIC ([3]; Staphylococcus epidermidis, read-out: Amikacin MIC Alone, S. epidermidis SE003): 32 µg/mL (≈ 54.6 µM)
- MIC ([3]; Stenotrophomonas maltophilia, read-out: Amikacin MIC Alone, S. maltophilia SMA018): 128 µg/mL (≈ 219 µM)
- MIC ([3]; Stenotrophomonas maltophilia, read-out: Amikacin MIC Alone, S. maltophilia SMA021): 128 µg/mL (≈ 219 µM)
- MIC ([3]; Stenotrophomonas maltophilia, read-out: Amikacin MIC Alone, S. maltophilia SMA022): > 128 µg/mL
- MIC ([3]; Stenotrophomonas maltophilia, read-out: Amikacin MIC Alone, S. maltophilia SMA036): > 128 µg/mL
- MIC ([3]; Stenotrophomonas maltophilia, read-out: Amikacin MIC Alone, S. maltophilia SMA037): 128 µg/mL (≈ 219 µM)
- MIC ([3]; Stenotrophomonas maltophilia, read-out: Amikacin MIC Alone, S. maltophilia SMA060): > 128 µg/mL
- MIC ([3]; Stenotrophomonas maltophilia, read-out: Amikacin MIC Alone, S. maltophilia SMA063): > 128 µg/mL
- MIC ([3]; Stenotrophomonas maltophilia, read-out: Amikacin MIC Alone, S. maltophilia SMA064): > 128 µg/mL
- Amikacin MIC Alone ([4]; E. faecium EFM004): 64 µg/mL and >128 µg/mL
- MIC [4, 5]: 64 µg/mL (≈ 109 µM)
- MIC [4, 6]: 128 µg/mL (≈ 219 µM)
- MIC ([4]; Enterococcus faecium, read-out: Amikacin MIC Alone, E. faecium EFM020): 32 µg/mL (≈ 54.6 µM)
